Structures are written as SMILES.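 Compound exposure: 48 hours, 5 concentrations, 96-well plates. GI50 = concentration required for 50% inhibition of growth.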 Active and inactive are the calls of the source. No stated cut-off is given here; in the data, active = GI50 up to about 1.1 µM and inactive = higher. Some results are limits rather than exact numbers.

Among the test systems are UACC-257; HCT-15; HT-29; K562; KM12; HCT-116; NCI-H460; T47D; Hs-578T; PC-3; SNB-75; MOLT-4; OVCAR-5; CCRF-CEM; IGROV-1; SR; UACC-62; SN12C; 786-0.
Common to all, as to assay: NCI anticancer screen, dose series, 48 h

With `Cn1c2ccccc2c2c3c(c4c5ccccc5n(C)c4c21)C(=O)N(Cc1ccccc1)C3=O`, the GI50 in the experiment with UACC-257 is > 100 µM (inactive); with HCT-15 it was > 100 µM; in the experiment on HT-29, > 100 µM (inactive); in the experiment on K562, > 100 µM (inactive); in the experiment on KM12 it was > 100 µM (inactive); with HCT-116, > 100 µM (inactive). Further, the GI50 in the experiment with NCI-H460, in the experiment on T47D, in the experiment on Hs-578T, in the experiment on PC-3, in the experiment with SNB-75 and with MOLT-4 was > 100 µM (inactive) in each case. For the same compound, the GI50 was > 100 µM (inactive) in the experiment with OVCAR-5; > 100 µM (inactive) in the experiment with CCRF-CEM; 53.3 µM (inactive) with IGROV-1; 31.8 µM (inactive) in the experiment on SR; > 100 µM (inactive) with UACC-62; > 100 µM (inactive) in the experiment with SN12C. In the experiment on 786-0, the GI50 was > 100 µM (inactive).

As to `COC(=O)C1OC(O[C@H]2CC[C@]3(C)[C@H]4CC=C5[C@@H]6CC(C)(C)CC[C@]6(C(=O)OC6OCC(O)C(O)C6OC6OC(C)C(OC7OCC(O)C(O)C7O)C(OC7OCC(O)(CO)C7O)C6O)[C@H](O)C[C@@]5(C)[C@]4(C)CC[C@H]3C2(C)C)C(O)C(O)C1O` (some centres undefined), the GI50 was 2.96 µM (inactive) in the experiment with UACC-257; 10.3 µM in the experiment with HCT-15; 2.54 µM (inactive) in the experiment on HT-29; 5.08 µM (inactive) with K562; 2.88 µM (inactive) in the experiment with KM12; 3.61 µM (inactive) in the experiment on HCT-116. The GI50 is 16.3 µM (inactive) in the experiment on NCI-H460; 3.86 µM (inactive) in the experiment on T47D; 11.9 µM (inactive) in the experiment with Hs-578T; 3.85 µM (inactive) in the experiment on PC-3; 6.27 µM (inactive) with SNB-75; 5.13 µM (inactive) with MOLT-4. Besides, the GI50 is 3.97 µM (inactive) in the experiment with OVCAR-5; 14.9 µM (inactive) with CCRF-CEM; 12.1 µM (inactive) in the experiment with IGROV-1; 2.08 µM (inactive) in the experiment on SR; 2.51 µM (inactive) in the experiment on UACC-62; 1.85 µM (inactive) in the experiment with SN12C. Further, the GI50 in the experiment with 786-0 is 7.45 µM (inactive).

Take `Cn1cco/c1=N/c1ccc(Cl)c(Cl)c1`: the GI50 in the experiment on UACC-257 was > 10 µM (inactive); with HCT-15, > 10 µM; in the experiment on HT-29, > 10 µM (inactive); in the experiment on K562, > 10 µM (inactive); in the experiment on KM12, > 10 µM (inactive); in the experiment with HCT-116, > 10 µM (inactive). In addition, the GI50 in the experiment on NCI-H460, with T47D, with Hs-578T, in the experiment with PC-3, in the experiment on SNB-75 and in the experiment with MOLT-4 was > 10 µM (inactive) in each case. The GI50 in the experiment with OVCAR-5, in the experiment with CCRF-CEM, with IGROV-1, with SR, in the experiment with UACC-62 and in the experiment on SN12C was > 10 µM (inactive) in each case. Besides, the GI50 in the experiment with 786-0 is > 10 µM (inactive).

For the compound `COC1=CC(=O)c2c(c(-c3csc(C)n3)cn2C)C1=O`, the GI50 in the experiment with UACC-257 is 5.92 µM (inactive); with HCT-15 it was 6.34 µM; with HT-29 it was 23.1 µM (inactive); with K562 it was 25.4 µM (inactive); with KM12 it was 22.8 µM (inactive); in the experiment with HCT-116, 23.4 µM (inactive). The GI50 in the experiment on NCI-H460 is 3.43 µM (inactive); with T47D, 26.5 µM (inactive); in the experiment on Hs-578T, 21.6 µM (inactive); in the experiment with PC-3 it was 20.9 µM (inactive); in the experiment on SNB-75, 4.31 µM (inactive); in the experiment on MOLT-4, 31.9 µM (inactive). Further, the GI50 in the experiment with OVCAR-5 is 49.5 µM (inactive); in the experiment on CCRF-CEM, 19.2 µM (inactive); in the experiment on IGROV-1 it was 20.7 µM (inactive); with SR it was 23.3 µM (inactive); in the experiment with UACC-62, 12.1 µM (inactive); in the experiment on SN12C, 22.1 µM (inactive). Further, in the experiment on 786-0, the GI50 is 36 µM (inactive).

Take `CN1CCC(n2[nH]c(-c3ccccc3)c(Cc3ccccc3)c2=O)CC1` [BENZPIPERYLON]: the GI50 in the experiment on UACC-257 was > 100 µM (inactive); with HCT-15 it was > 100 µM; in the experiment with HT-29, 87.9 µM (inactive); in the experiment with K562 it was 42.2 µM (inactive); in the experiment with KM12, > 100 µM (inactive); in the experiment with HCT-116 it was 75.9 µM (inactive). Moreover, the GI50 with NCI-H460 is 49.5 µM (inactive); in the experiment with T47D, > 100 µM (inactive); in the experiment on Hs-578T, 50.9 µM (inactive); in the experiment on PC-3, > 100 µM (inactive); in the experiment on SNB-75 it was 29.7 µM (inactive); with MOLT-4, 19.5 µM (inactive). Further, the GI50 in the experiment with OVCAR-5 is > 100 µM (inactive); with CCRF-CEM, 37.9 µM (inactive); with IGROV-1, 59.7 µM (inactive); with SR it was 33.3 µM (inactive); in the experiment with UACC-62, > 100 µM (inactive); in the experiment with SN12C, > 100 µM (inactive). Moreover, in the experiment on 786-0, the GI50 was > 100 µM (inactive).

For the compound `CCCCCN(CCCCC)CC(C)(C)C(O)c1ccc(OC)c2ccccc12` (centres undefined), the GI50 with UACC-257 is 13.1 µM (inactive); with HCT-15 it was 5.81 µM; in the experiment on HT-29, 2.01 µM (inactive); in the experiment on K562, 3.01 µM (inactive); with KM12, 8.81 µM (inactive); in the experiment on HCT-116 it was 12.9 µM (inactive). In addition, the GI50 in the experiment with NCI-H460 is 3.4 µM (inactive); in the experiment on T47D it was 4.56 µM (inactive); in the experiment with Hs-578T, 16.6 µM (inactive); in the experiment with PC-3, 10.9 µM (inactive); in the experiment with SNB-75 it was 20.5 µM (inactive); in the experiment on MOLT-4, 3.25 µM (inactive). The GI50 in the experiment with OVCAR-5 is 11.9 µM (inactive); with CCRF-CEM, 27.9 µM (inactive); with IGROV-1, 2.59 µM (inactive); in the experiment on SR it was 2.07 µM (inactive); in the experiment with UACC-62, 12.5 µM (inactive); in the experiment with SN12C it was 11.5 µM (inactive). Besides, in the experiment on 786-0, the GI50 was 12.4 µM (inactive).

`Cc1cc(S(=O)(=O)N/C(=N/N)NCCc2ccccc2)c(S)cc1Cl`: the GI50 in the experiment on UACC-257 was 44.4 µM (inactive); in the experiment on HCT-15, 19.2 µM; with HT-29 it was 31.6 µM (inactive); in the experiment with K562 it was 30.6 µM (inactive); in the experiment with KM12 it was 23.4 µM (inactive); with HCT-116 it was 25.1 µM (inactive). Also, the GI50 in the experiment on T47D is 18.1 µM (inactive); in the experiment on Hs-578T it was 25.5 µM (inactive); with PC-3 it was 30.1 µM (inactive); with SNB-75, 25.6 µM (inactive); in the experiment on MOLT-4 it was 17.7 µM (inactive); in the experiment with OVCAR-5 it was 19.5 µM (inactive). For the same compound, the GI50 was 25.1 µM (inactive) in the experiment on CCRF-CEM; 36 µM (inactive) with IGROV-1; 29.9 µM (inactive) in the experiment with SR; 18.1 µM (inactive) in the experiment on UACC-62; 33.5 µM (inactive) in the experiment with SN12C; 30.5 µM (inactive) in the experiment on 786-0.

As to `CC(O)CNC1=CC(=O)C(=O)c2ccccc21` (centres undefined), the GI50 in the experiment on UACC-257 was 16 µM (inactive); in the experiment with HCT-15 it was 15 µM; in the experiment with K562, 28.9 µM (inactive); in the experiment on KM12, 19.2 µM (inactive); in the experiment with HCT-116 it was 16.1 µM (inactive); with NCI-H460 it was 14.3 µM (inactive). In addition, the GI50 was 20.9 µM (inactive) in the experiment with T47D; 22.8 µM (inactive) in the experiment with Hs-578T; 22.3 µM (inactive) with PC-3; 14.9 µM (inactive) in the experiment with SNB-75; 23 µM (inactive) in the experiment on MOLT-4; 19.5 µM (inactive) in the experiment on OVCAR-5. The GI50 is 37.9 µM (inactive) in the experiment on CCRF-CEM; 13.4 µM (inactive) in the experiment on IGROV-1; 16.7 µM (inactive) in the experiment with SR; 12.9 µM (inactive) with UACC-62; 17.1 µM (inactive) with SN12C; 17.6 µM (inactive) in the experiment on 786-0.

With `CC1(C)CC2(C)CC1CC2(O)c1ccccc1` (centres undefined), the GI50 with UACC-257, with HT-29, in the experiment with K562, in the experiment with KM12, in the experiment with HCT-116 and in the experiment on NCI-H460 was > 100 µM (inactive) throughout. The GI50 in the experiment on T47D, with Hs-578T, in the experiment on PC-3, in the experiment with SNB-75, in the experiment on MOLT-4 and in the experiment on OVCAR-5 was > 100 µM (inactive) each time. In addition, the GI50 in the experiment with CCRF-CEM, in the experiment on IGROV-1, in the experiment on SR, with UACC-62, in the experiment on SN12C and in the experiment on 786-0 was > 100 µM (inactive) in each case.

Regarding `O=C(N/N=C/c1ccc(Cl)cc1)c1c(Cl)c(Cl)c(Cl)c(Cl)c1-c1nc2ccccc2[nH]1`, the GI50 with HCT-15 was 64.1 µM; in the experiment on HT-29, 47.3 µM (inactive); in the experiment with K562, 47.9 µM (inactive); in the experiment on KM12, 8.36 µM (inactive); in the experiment on HCT-116, 40.3 µM (inactive); in the experiment on NCI-H460, 30 µM (inactive). The GI50 with T47D was 4.47 µM (inactive); with Hs-578T, 1.83 µM (inactive); in the experiment with PC-3, 92.5 µM (inactive); with SNB-75, > 100 µM (inactive); with MOLT-4, 40.2 µM (inactive); with OVCAR-5, > 100 µM (inactive). For the same compound, the GI50 in the experiment on CCRF-CEM was 50.4 µM (inactive); in the experiment with IGROV-1 it was 59.3 µM (inactive); in the experiment on SR, 59.2 µM (inactive); with UACC-62, 80.9 µM (inactive); in the experiment on SN12C it was > 100 µM (inactive); with 786-0 it was 28.6 µM (inactive).

Consider `N#CC(NCc1cccc(CNC(C#N)c2ccccc2)c1)c1ccccc1` (centres undefined), for which the GI50 with UACC-257 was 59.6 µM (inactive); with HCT-15 it was 25.8 µM; in the experiment on HT-29, 16.4 µM (inactive); in the experiment on K562, 17.1 µM (inactive); in the experiment on KM12 it was 22.3 µM (inactive); with HCT-116, 23.8 µM (inactive). In addition, the GI50 in the experiment on T47D was 48.6 µM (inactive); in the experiment on Hs-578T, 32.8 µM (inactive); in the experiment with PC-3, 42.9 µM (inactive); in the experiment with SNB-75 it was 28.9 µM (inactive); in the experiment on MOLT-4 it was 16 µM (inactive); with OVCAR-5 it was > 100 µM (inactive). For the same compound, the GI50 with CCRF-CEM is 18.1 µM (inactive); with IGROV-1 it was 18.1 µM (inactive); with SR, 25.8 µM (inactive); in the experiment with UACC-62, 65.2 µM (inactive); with SN12C it was 77.8 µM (inactive); in the experiment with 786-0, 35.6 µM (inactive).

These data come from ChEMBL document CHEMBL1201862, “PubChem BioAssay data set” (2004).
